Values quoted from earlier work, collected in PubChem BioAssay AID1259409 (Chemical Carcinogenesis Research Information System (CCRIS), 2018).

System: rodent chemically induced tumor inhibition, incidence and multiplicity
Assay: CCRIS tumor inhibitor studies

## NC(N)=NCCC[C@H](N)C(=O)O
Carcinogen: 7,12-DIMETHYLBENZ[A]ANTHRACENE, 57-97-6, Dose [Inhibitor]: 0, 5% IN A 14% CASEIN DIET BEGINNING 2 WK PRIOR TO CARCINOGEN DOSE AND CONTINUING FOR 21 WK (STUDY DURATION: 23 WK), Route [Inhibitor]: ORAL, Species: RAT, Strain/Sex: SPRAGUE-DAWLEY/FEMALE, Target Tissue: Type of Lesion: MAMMARY GLAND: TUMOR, Dose [Carcinogen]: 7.5 MG IN 0.75 ML SESAME OIL ONCE AT 50 D OF AGE, Promoter: NONE USED
  tumour outcome (control, treated, inhibition, significance): 24/30 (80%), 22/30 (73%), 8%, not significant
Carcinogen: 7,12-DIMETHYLBENZ[A]ANTHRACENE, 57-97-6, Dose [Inhibitor]: 5% L-ARGININE IN DIET STARTING 7 D BEFORE DMBA ADMINISTRATION (STUDY DURATION: 21 WK), Route [Inhibitor]: ORAL, Species: RAT, Strain/Sex: SPRAGUE DAWLEY/FEMALE, Target Tissue: Type of Lesion: MAMMARY GLAND: TUMOR, Dose [Carcinogen]: 15% OIL EMULSION, 25 MG/KG BW ADMINISTERED ONCE, Promoter: NONE USED
  tumour outcome (control, treated, inhibition, significance): 95%, 25%, 74%, not calculated
Carcinogen: 7,12-DIMETHYLBENZ[A]ANTHRACENE, 57-97-6, Dose [Inhibitor]: 5% L-ARGININE IN DIET STARTING 7 D BEFORE DMBA TREATMENT FOR 3 M AND THEN CONTROL DIET (STUDY DURATION: 32 WK), Route [Inhibitor]: ORAL, Species: RAT, Strain/Sex: SPRAGUE DAWLEY/FEMALE, Target Tissue: Type of Lesion: MAMMARY GLAND: TUMOR, Dose [Carcinogen]: 15% OIL EMULSION, 25 MG/KG BW ADMINISTERED ONCE, Promoter: NONE USED
  tumour outcome (control, treated, inhibition, significance): 100%, 80%, 20%, not calculated
Carcinogen: HYDRAZINE SULFATE, 10034-93-2, Dose [Inhibitor]: 1.1 MG/D IN DIET STARTING 1 WK PRIOR TO ADMINISTRATION OF CARCINOGEN UNTIL END OF EXPERIMENT (STUDY DURATION: APPROXIMAT, Route [Inhibitor]: ORAL, Species: MOUSE, Strain/Sex: SWISS/MALE, FEMALE, Target Tissue: Type of Lesion: LIVER AND LUNG: COMBINED TUMORS, Dose [Carcinogen]: 1.1 MG/D 5 D/WK UNTIL 12 MO OF AGE, Promoter: NONE USED
  tumour outcome (control, treated, inhibition, significance): 24/29 (83%), 11/18 (61%), 26%, not significant
Carcinogen: ISONIAZID, 54-85-3, Dose [Inhibitor]: 1.1 MG/MOUSE/D SIMULTANEOUS WITH CARCINOGEN 6 D/WK (STUDY DURATION: 24 MO), Route [Inhibitor]: INTRAGASTRIC, Species: MOUSE, Strain/Sex: SWISS/MALE, Target Tissue: Type of Lesion: LUNG: TUMOR, Dose [Carcinogen]: 1.1 MG/MOUSE/D SIMULTANEOUS WITH INHIBITOR, Promoter: NONE USED
  tumour outcome (control, treated, inhibition, significance): 15/29 (52%), 3/10 (30%), 42%, not significant
Carcinogen: N-METHYL-N-NITROSOUREA, 684-93-5, Dose [Inhibitor]: 0, 5% IN A 14% CASEIN DIET BEGINNING 2 WK PRIOR TO CARCINOGEN DOSE AND CONTINUING FOR 21 WK (STUDY DURATION: 23 WK), Route [Inhibitor]: ORAL, Species: RAT, Strain/Sex: SPRAGUE-DAWLEY/FEMALE, Target Tissue: Type of Lesion: MAMMARY GLAND: TUMOR, Dose [Carcinogen]: 4 MG/100 G BW ONCE AT 50 D OF AGE, Promoter: NONE USED
  tumour outcome (control, treated, inhibition, significance): 28/30 (93%), 27/30 (90%), 3%, not significant

## CN=C(NC#N)NCCSCc1nc[nH]c1C
Carcinogen: 7,12-DIMETHYLBENZ[A]ANTHRACENE, 57-97-6, Dose [Inhibitor]: 0, 10 MG A WK IN DRINKING WATER BEGINNING 1 WK POST CARCINOGEN DOSE AND CONTINUING FOR DURATION OF STUDY (STUDY DURATION, Route [Inhibitor]: ORAL, Species: MOUSE, Strain/Sex: SENCAR/MALE, Target Tissue: Type of Lesion: SKIN: PAPILLOMA, Dose [Carcinogen]: 100 NMOL IN 200 µL ACETONE ONCE, Promoter: 12-O-TETRADECANOYLPHORBOL-13-ACETATE, 16561-29-8
  tumour outcome (control, treated, inhibition, significance): 95%, 100%, -5%, not calculated
Carcinogen: N-METHYL-N'-NITRO-N-NITROSOGUANIDINE, 70-25-7, Dose [Inhibitor]: 10 MG/KG BW IN DEPOT FORM 1/2 D BEGINNING 1 WK POST LAST CARCINOGEN DOSE FOR DURATION OF STUDY (STUDY DURATION: 52 WK), Route [Inhibitor]: SUBCUTANEOUS, Species: RAT, Strain/Sex: WISTAR/MALE, Target Tissue: Type of Lesion: STOMACH: ADENOCARCINOMA, Dose [Carcinogen]: 50 UG/ML IN DRINKING WATER FOR 25 WK, Promoter: NONE USED
  tumour outcome (control, treated, inhibition, significance): 12/19 (63%), 13/19 (68%), -8%, not calculated
Carcinogen: N-METHYL-N'-NITRO-N-NITROSOGUANIDINE, 70-25-7, Dose [Inhibitor]: 20 MG/KG BW IN DEPOT FORM 1/2 D BEGINNING 1 WK POST LAST CARCINOGEN DOSE FOR DURATION OF STUDY (STUDY DURATION: 52 WK), Route [Inhibitor]: SUBCUTANEOUS, Species: RAT, Strain/Sex: WISTAR/MALE, Target Tissue: Type of Lesion: STOMACH: ADENOCARCINOMA, Dose [Carcinogen]: 50 UG/ML IN DRINKING WATER FOR 25 WK, Promoter: NONE USED
  tumour outcome (control, treated, inhibition, significance): 12/19 (63%), 11/19 (58%), 8%, not calculated

## CC1=C(O)C(=O)C(C)O1 (configuration not stated)
Carcinogen: BENZO[A]PYRENE, 50-32-8, Dose [Inhibitor]: 0, 25 PPM IN DIET FOR 17 WK BEGINNING 1 WK POST CARCINOGEN TREATMENT (STUDY DURATION: 21 WK), Route [Inhibitor]: ORAL, Species: MOUSE, Strain/Sex: ICR/FEMALE, Target Tissue: Type of Lesion: FORESTOMACH: TUMOR, Dose [Carcinogen]: 1.5 MG IN 0.2 ML CORN OIL 1/WK FOR 4 WK, Promoter: NONE USED
  tumour outcome (control, treated, inhibition, significance): 90%, 74%, 18%, not significant
Carcinogen: BENZO[A]PYRENE, 50-32-8, Dose [Inhibitor]: 0, 50 PPM IN DIET FOR 17 WK BEGINNING 1 WK POST CARCINOGEN TREATMENT (STUDY DURATION: 21 WK), Route [Inhibitor]: ORAL, Species: MOUSE, Strain/Sex: ICR/FEMALE, Target Tissue: Type of Lesion: FORESTOMACH: TUMOR, Dose [Carcinogen]: 1.5 MG IN 0.2 ML CORN OIL 1/WK FOR 4 WK, Promoter: NONE USED
  tumour outcome (control, treated, inhibition, significance): 90%, 72%, 20%, p<0.1
Carcinogen: BENZO[A]PYRENE, 50-32-8, Dose [Inhibitor]: 0, 75 PPM IN DIET FOR 17 WK BEGINNING 1 WK POST CARCINOGEN TREATMENT (STUDY DURATION: 21 WK), Route [Inhibitor]: ORAL, Species: MOUSE, Strain/Sex: ICR/FEMALE, Target Tissue: Type of Lesion: FORESTOMACH: TUMOR, Dose [Carcinogen]: 1.5 MG IN 0.2 ML CORN OIL 1/WK FOR 4 WK, Promoter: NONE USED
  tumour outcome (control, treated, inhibition, significance): 90%, 62%, 31%, p<0.05

## O=C(NC(Cc1cc(=O)[nH]c2ccccc12)C(=O)O)c1ccc(Cl)cc1 (configuration not stated)
Carcinogen: N-ETHYL-N'-NITRO-N-NITROSOGUANIDINE, 4245-77-6, Dose [Inhibitor]: 0, 20 MG/KG/D IN DIET FOR 16 WK (STUDY DURATION: 16 WK), Route [Inhibitor]: ORAL, Species: MOUSE, Strain/Sex: C57BL/MALE, Target Tissue: Type of Lesion: DUODENUM: TUMOR, Dose [Carcinogen]: 100 MG/L IN DRINKING WATER FOR 4 WK, Promoter: NONE USED
  tumour outcome (control, treated, inhibition, significance): 22/33 (67%), 18/33 (55%), 18%, not significant
Carcinogen: N-ETHYL-N'-NITRO-N-NITROSOGUANIDINE, 4245-77-6, Dose [Inhibitor]: 0, 20 MG/KG/D IN DIET FOR DURATION OF STUDY (STUDY DURATION: 16 WK), Route [Inhibitor]: ORAL, Species: MOUSE, Strain/Sex: C57BL/MALE, Target Tissue: Type of Lesion: DUODENUM: TUMOR, Dose [Carcinogen]: 100 MG/L IN DRINKING WATER FOR 4 WK, Promoter: NONE
  tumour outcome (control, treated, inhibition, significance): 22/33 (67%), 18/31 (58%), 13%, not significant
Carcinogen: N-ETHYL-N'-NITRO-N-NITROSOGUANIDINE, 4245-77-6, Dose [Inhibitor]: 0, 50 MG/KG/D IN DIET FOR 16 WK (STUDY DURATION: 16 WK), Route [Inhibitor]: ORAL, Species: MOUSE, Strain/Sex: C57BL/MALE, Target Tissue: Type of Lesion: DUODENUM: TUMOR, Dose [Carcinogen]: 100 MG/L IN DRINKING WATER FOR 4 WK, Promoter: NONE USED
  tumour outcome (control, treated, inhibition, significance): 22/33 (67%), 14/33 (42%), 37%, p<0.05
Carcinogen: N-ETHYL-N'-NITRO-N-NITROSOGUANIDINE, 4245-77-6, Dose [Inhibitor]: 0, 50 MG/KG/D IN DIET FOR DURATION OF STUDY (STUDY DURATION: 16 WK), Route [Inhibitor]: ORAL, Species: MOUSE, Strain/Sex: C57BL/MALE, Target Tissue: Type of Lesion: DUODENUM: TUMOR, Dose [Carcinogen]: 100 MG/L IN DRINKING WATER FOR 4 WK, Promoter: NONE
  tumour outcome (control, treated, inhibition, significance): 22/33 (67%), 14/31 (45%), 33%, not significant
Carcinogen: N-METHYL-N'-NITRO-N-NITROSOGUANIDINE, 70-25-7, Dose [Inhibitor]: 0, 20 MG/KG/D IN DIET FOR 34 WK BEGINNING 10 WK POST FIRST CARCINOGEN DOSE (STUDY DURATION: 44 WK), Route [Inhibitor]: ORAL, Species: RAT, Strain/Sex: WISTAR/MALE, Target Tissue: Type of Lesion: STOMACH: TUMOR, Dose [Carcinogen]: 80 MG/L IN DRINKING WATER FOR 28 WK, Promoter: NONE
  tumour outcome (control, treated, inhibition, significance): 10/13 (77%), 8/13 (62%), 19%, not significant
